Series [1] is described as follows: viscosity by Brookfield type viscometer or capillary tube viscometer. Type of series: physicochemical. Here is the method:
The viscosity of the fluorine-containing oil is e.g. at least 5 mPa·s, particularly 10 to 10,000 mPa·s. The viscosity of the fluorine oil (and the HFE) was measured by a Brookfield type viscometer or a capillary tube viscometer.

Series [2] relates to the skin. The series can be described thus: use of the cosmetic applied onto the skin (feeling in use, evaporation of the HFE, skin moisture). It counts as in vivo. The conditions noted are these: after the cosmetic was applied onto the skin. The method, then: 50% by weight of a perfluoropolyether (FOMBLIN HC/04 manufactured by Audimont) (viscosity at 25° C.: 70 mPa·s) was mixed with 50% by weight of C4F9OCH3 (HFE A) (viscosity at 25° C.: 0.6 mPa·s) under stirring to give a solution. Thereafter, a very small amount of a perfume was added to give a non-aqueous lotion. This non-aqueous lotion was felt very smooth in use.
The powder ingredients in the formulation shown in Table 2 were mixed and ground with an atomizer and then transferred to a Henschel mixer. Then FOMBLIN HC/04 was added thereto, and the mixture was uniformly mixed. The mixture was dispersed in […] (HFE B) (viscosity at 25° C.: 0.7 mPa·s) to give a solvent dispersion-type foundation. This solvent dispersion-type foundation was felt very smooth in use.
The ingredients (1) to (8) in the formulation shown in Table 3 were mixed and ground in a colloid mill. After this mixture was heated at 80° C., the ingredients (9) to (13) which had been heated and mixed at 80° C. were added thereto and emulsified uniformly in a homomixer. The ingredient (14) was added to this emulsion, further emulsified uniformly in a homomixer, and cooled to room temperature to give a liquid foundation. This liquid foundation was felt very smooth in use. […]

These results are taken from patent US20020182240A1, “Cosmetics with hydrofluoroether (HFE)” (Daikin Industries, priority 1997, published 2002).

By viscosity is commonly meant the internal friction of a fluid under shear. As to `CCOC(F)(F)C(F)(F)C(F)(F)C(F)(F)F` [HFE B, C4F9OC2H5], in series [1], the “viscosity at 25° C.” value is 0.7 mPa·s. The “evaporation of the HFE” value in series [2] is “evaporated rapidly”.
On the same counts, the results for C4F9OCH3 [HFE A] are 0.6 mPa·s and “evaporated rapidly”.
As to `FC(F)C(F)(F)OCC1(COCC(COC(F)(F)C(F)F)(COC(F)(F)C(F)F)COC(F)(F)C(F)F)COC1` [chemical formula B], the “viscosity at 25° C.” value in series [1] amounted to 40 mPa·s.
